Laboratory results as given in patent publication US20090275557A1, “Novel Composition for Treatment of Diseases Related to Activated Lymphocytes” (Immune Control, Inc., priority 2008, published 2009).
Several values for one entry are separate records, joined by “and”; a condition that tells them apart may be missing. Equal entries are not always repeated. Where two headings read alike, the source gives them in different places.

Legend:
[1] = system: bovine type 2 collagen immunized rats; assay: Collagen-induced arthritis assay, IP injection protocol, ankle diameter; assay type: in vivo, rat
Procedure: (§1) Female Lewis rats (CR) weighing between 125-200 g were immunized with bovine type 2 collagen, 2 mg/ml in a 1:1 solution of 0.01 N acetic acid and Freund's incomplete adjuvant (“FIA”). A 0.1 ml portion of the collagen solution was injected id (intradermally) at three sites on the rat. Rats were immunized with the collagen solution on days 1 and 6 of the study. […] On day 9 (study day “0”), baseline ankle diameters were measured. On days 10-15 (study days 1-6), the rats were then treated, via oral gavage, with either 1, 5, or 25 mg/kg of one of ICI-1259 or ICI-1260, prepared as described below. Ankle diameter measurements were measured on each of days 10-16.
Compounds ICI-1259, ICI-1260, ICI-1505, and ICI-1506 were administered via IP injection to treat collagent-induced arthritis in a variation of the experiments described above. Under the protocol of the IP injection experiments, animal were immunized with Bovine Type 2 collagen as previously described. […] On day 9 (study day “0”), baseline ankle diameters were measured. On days 10-12 (study days 1-3), the rats were then treated once per day, via IP injection, with one of ICI-1259, ICI-1260, ICI-1505, or ICI-1506 at 10 mg/kg. Ankle diameter in the immunized rodents was measured on each of days 10-13 as well as on day 14. […] See FIG. 18 (ICI-1259, ICI-1260, and ICI-1505) and FIG. 19 (ICI-1506).
In a separate study, using the IP injection protocol described above, ICI-1259 and 1260 were each dosed at 2 mg/kg and 0.4 mg/kg.

[2] = Pharmacokinetic study, oral gavage in fasted male Sprague-Dawley rats; assay type: in vivo, rat
Procedure: ICI-1259 and ICI-1260 were supplied as powders and stored frozen until used. Dosing solutions in phosphate buffered saline were prepared at 1 mg/ml. These solutions were then evaluated in fasted male Sprague-Dawley rats. The rats were fitted with a jugular vein cannula for blood sampling. Rats were also fitted with an additional jugular vein cannula, or intradudodenal cannula as needed. Rats were given a commercial rodent diet ad libitum prior to study initiation. Food was then withheld from the animals for a minimum of twelve hours prior to dosing, until four hours postdose when food was returned. Water was supplied ad libitum. Three rats were used in each study, unless otherwise indicated.
For both ICI-1259 and ICI-1260, rats were given a 10 mg/kg dose from a 1 mg/ml solution. The appropriate volume of solution was given as a single bolus dose at time zero on the day of dosing. Blood samples were taken at predose, 5 minutes after dosing, 10 minutes after dosing, 15 minutes after dosing, 30 minutes after dosing, 1 hour after dosing, 2 hours after dosing, 4 hours after dosing, 6 hours after dosing, and 8 hours after dosing.

[3] = molecular target: T1, 5-HT3(h) (Homo sapiens, UniProt P46098); assay: 5-HT receptor binding, displacement of tritiated ligands; details: at 10 μM
T1 construct: from tissue
T1 sequence (P46098 24-478): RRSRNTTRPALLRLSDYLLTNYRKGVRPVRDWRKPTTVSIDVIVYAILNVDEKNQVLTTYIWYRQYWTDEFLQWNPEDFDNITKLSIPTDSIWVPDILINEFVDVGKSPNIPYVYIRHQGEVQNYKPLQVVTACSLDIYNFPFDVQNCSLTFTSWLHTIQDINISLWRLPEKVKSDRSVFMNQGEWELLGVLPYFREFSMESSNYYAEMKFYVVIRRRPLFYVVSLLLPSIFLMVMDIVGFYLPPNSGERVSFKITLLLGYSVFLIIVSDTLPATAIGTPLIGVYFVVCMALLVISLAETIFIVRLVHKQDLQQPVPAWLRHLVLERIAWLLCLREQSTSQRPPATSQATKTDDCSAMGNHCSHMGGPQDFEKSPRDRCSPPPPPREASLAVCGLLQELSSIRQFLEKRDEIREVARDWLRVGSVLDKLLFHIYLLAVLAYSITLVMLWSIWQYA
Procedure: (§2) 5-HT receptor binding was measured using membrane preparations of brain regions known to be enriched with given 5-HT receptor subtype(s). The assay subsequently measured the displacement of tritiated ligands known to bind to a given 5-HT subtype.
(§3) A receptor binding assay was performed for ICI-1259 and ICI-1260 showing that at 10 μM, these compounds bind receptors 5-HT1A(h), 5-HT1B, 5-HT1D(h), 5-HT2A, 5-HT2A(h), 5-HT2B, 5-HT2C, 5-HT3,5-HT3(h), 5-HT4, 5-HT5A(h), 5-HT6, and 5-HT7.

[4] = system: 5-HT6; assay: as above; details: at 10 μM
Procedure: as §2, §3

[5] = system: 5-HT1B; assay: as above; details: at 10 μM
Procedure: as §2, §3

[6] = system: 5-HT3; assay: as above; details: at 10 μM
Procedure: as §2, §3

[7] = molecular target: T2, 5-HT2A(h) (Homo sapiens, UniProt P28223); assay: as above; details: at 10 μM
T2 construct: from tissue
Procedure: as §2, §3

[8] = system: bovine type 2 collagen immunized female Lewis rats; assay: Collagen-induced arthritis assay, oral gavage treatment, ankle diameter; assay type: in vivo, rat; details: larger standard errors at each dose
Procedure: as §1
Separate solutions of ICI-1259 and ICI-1260 were prepared in Dulbecco's PBS (pH 7) (“vehicle”) at 1 mg/ml. Control animals, who had not been immunized, were given vehicle without any compound. In a further control, immunized rats were given vehicle without ICI-1259 or ICI-1260. In still another control, immunized rats were treated with Enbrel™ at 10 mg/kg.

[9] = individual rats, oral gavage 10 mg/kg, 10 mg/kg
[10] = male, Sprague-Dawley, rat, plasma, po, 10 mg/kg, individual rats, oral gavage 10 mg/kg
[11] = male, Sprague-Dawley, rat, plasma, po, 10 mg/kg, mean, oral gavage 10 mg/kg

T2 sequence (P28223 whole entry): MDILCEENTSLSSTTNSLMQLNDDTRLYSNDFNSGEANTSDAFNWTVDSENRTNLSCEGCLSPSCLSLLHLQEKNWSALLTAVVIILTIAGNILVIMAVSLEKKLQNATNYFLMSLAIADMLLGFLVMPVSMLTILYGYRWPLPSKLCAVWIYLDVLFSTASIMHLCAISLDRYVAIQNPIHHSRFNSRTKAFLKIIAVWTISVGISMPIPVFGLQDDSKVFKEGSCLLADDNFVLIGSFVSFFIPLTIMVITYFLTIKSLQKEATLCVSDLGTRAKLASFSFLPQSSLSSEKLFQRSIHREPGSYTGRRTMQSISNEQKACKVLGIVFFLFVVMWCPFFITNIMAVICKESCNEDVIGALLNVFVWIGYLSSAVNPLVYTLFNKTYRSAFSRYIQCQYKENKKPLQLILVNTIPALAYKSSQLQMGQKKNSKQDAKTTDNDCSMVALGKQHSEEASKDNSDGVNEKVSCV

**Q.** What does the source list for NCC(=O)NCCCN1CCC(CCCN2c3ccccc3Sc3ccc(C(F)(F)F)cc32)CC1 [ICI-1260, 2-amino-N-(3-(4-(3-(2-(trifluoromethyl)-10H-phenothiazin-10-yl)propyl)piperidin-1-yl)propyl)acetamide]?
**A.** reduction in ankle swelling (ankle diameter) ([1]; IP injection 0.4 mg/kg): Statistically significant results were only observed for ICI-1260 at 2 mg/kg; reduction in ankle swelling (ankle diameter) ([1]; IP injection 2 mg/kg, study days 3 and 4): Statistically significant results; reduction in ankle swelling (ankle diameter) ([1]; IP injection 10 mg/kg once per day, study days 1-3, observed on study days 2-4): statistically significant results were observed; dose absorbed after oral dosing ([2]; indirectly indicated by the average bioavailability, oral 10 mg/kg): approximately 26%; AUClast [2, 9]: 84.9 ng·h/mL and 95.9 ng·h/mL; Cmax [2, 9]: 22.2 ng/mL and 25.9 ng/mL; Dose Normalized AUClast [2, 9]: 11.2 kg·ng·h/mL/mg and 8.49 kg·ng·h/mL/mg and 9.59 kg·ng·h/mL/mg; Dose Normalized AUC∞ [2, 9]: 9.40 kg·ng·h/mL/mg and 11.1 kg·ng·h/mL/mg; Tmax [2, 9]: 1.0 h; t1/2 [2, 9]: 2.6 h; Plasma concentration ([2]; individual rats, oral gavage 10 mg/kg, 0.083 hr, BLOQ = below limit of quantitation (1 ng/mL), 10 mg/kg): 1.33 ng/mL and BLOQ; Plasma concentration ([2]; individual rats, oral gavage 10 mg/kg, 0.25 hr, 10 mg/kg): 9.32 ng/mL and 2.68 ng/mL and 7.31 ng/mL; Plasma concentration ([2]; individual rats, oral gavage 10 mg/kg, 0.50 hr, 10 mg/kg): 8.00 ng/mL and 3.02 ng/mL and 6.16 ng/mL; Plasma concentration ([2]; individual rats, oral gavage 10 mg/kg, 1.0 hr, 10 mg/kg): 5.33 ng/mL and 5.38 ng/mL and 25.9 ng/mL; Plasma concentration ([2]; individual rats, oral gavage 10 mg/kg, 2.0 hr, 10 mg/kg): 22.2 ng/mL and 24.0 ng/mL; Plasma concentration ([2]; individual rats, oral gavage 10 mg/kg, 4.0 hr, 10 mg/kg): 4.89 ng/mL and 11.7 ng/mL and 7.39 ng/mL; Plasma concentration ([2]; individual rats, oral gavage 10 mg/kg, 6.0 hr, 10 mg/kg): 19.8 ng/mL and 9.71 ng/mL and 8.98 ng/mL; Plasma concentration ([2]; individual rats, oral gavage 10 mg/kg, 8.0 hr, 10 mg/kg): 2.87 ng/mL and 3.93 ng/mL; bioavailability ([2]; individual rats, oral gavage 10 mg/kg, dose normalized AUC divided by average intravenous AUC, 10 mg/kg): 9.0%; AUC∞ ([2]; individual rats, oral gavage 10 mg/kg, extrapolated to infinity, 10 mg/kg): 111 ng·h/mL; AUC(0-t) [2, 10]: 112 ng·h/mL; half-life [2, 10]: 2.2 h; concentration at 0.083 hr ([2]; male, Sprague-Dawley, rat, plasma, po, 10 mg/kg, individual rats, oral gavage 10 mg/kg, 0.083 hr, BLOQ = below limit of quantitation (1 ng/mL)): 1.48 ng/mL; concentration at 2 hr ([2]; male, Sprague-Dawley, rat, plasma, po, 10 mg/kg, individual rats, oral gavage 10 mg/kg, 2.0 hr): 33.8 ng/mL; concentration at 8 hr ([2]; male, Sprague-Dawley, rat, plasma, po, 10 mg/kg, individual rats, oral gavage 10 mg/kg, 8.0 hr): 3.13 ng/mL; bioavailability ([2]; male, Sprague-Dawley, rat, plasma, po, 10 mg/kg, individual rats, oral gavage 10 mg/kg, dose normalized AUC divided by average intravenous AUC, read-out: Bioavailability): 13%; AUC(0-inf) ([2]; male, Sprague-Dawley, rat, plasma, po, 10 mg/kg, individual rats, oral gavage 10 mg/kg, extrapolated to infinity): 94 ng·h/mL; Cmax ([2]; male, Sprague-Dawley, rat, plasma, po, 10 mg/kg, individual rats, oral gavage 10 mg/kg, read-out: Cmax): 33.8 ng/mL; Tmax ([2]; male, Sprague-Dawley, rat, plasma, po, 10 mg/kg, individual rats, oral gavage 10 mg/kg, read-out: tmax): 2 h; bioavailability ([2]; male, Sprague-Dawley, rat, plasma, po, 10 mg/kg, mean (average), oral gavage 10 mg/kg, read-out: Bioavailability): 11%; AUC(0-t) [2, 11]: 97.7 ng·h/mL; half-life [2, 11]: 2.4 h; concentration at 0.083 hr ([2]; male, Sprague-Dawley, rat, plasma, po, 10 mg/kg, mean, oral gavage 10 mg/kg, 0.083 hr): 1.41 ng/mL; concentration at 0.25 hr ([2]; male, Sprague-Dawley, rat, plasma, po, 10 mg/kg, mean, oral gavage 10 mg/kg, 0.25 hr): 6.44 ng/mL; concentration at 0.5 hr ([2]; male, Sprague-Dawley, rat, plasma, po, 10 mg/kg, mean, oral gavage 10 mg/kg, 0.50 hr): 5.73 ng/mL; concentration at 1 hr ([2]; male, Sprague-Dawley, rat, plasma, po, 10 mg/kg, mean, oral gavage 10 mg/kg, 1.0 hr): 12.2 ng/mL; concentration at 2 hr ([2]; male, Sprague-Dawley, rat, plasma, po, 10 mg/kg, mean, oral gavage 10 mg/kg, 2.0 hr): 26.7 ng/mL; concentration at 4 hr ([2]; male, Sprague-Dawley, rat, plasma, po, 10 mg/kg, mean, oral gavage 10 mg/kg, 4.0 hr): 7.99 ng/mL; concentration at 6 hr ([2]; male, Sprague-Dawley, rat, plasma, po, 10 mg/kg, mean, oral gavage 10 mg/kg, 6.0 hr): 12.8 ng/mL; concentration at 8 hr ([2]; male, Sprague-Dawley, rat, plasma, po, 10 mg/kg, mean, oral gavage 10 mg/kg, 8.0 hr): 3.31 ng/mL; AUC(0-inf) ([2]; male, Sprague-Dawley, rat, plasma, po, 10 mg/kg, mean, oral gavage 10 mg/kg, extrapolated to infinity): 102 ng·h/mL; Cmax ([2]; male, Sprague-Dawley, rat, plasma, po, 10 mg/kg, mean, oral gavage 10 mg/kg, read-out: Cmax): 27.3 ng/mL; Tmax ([2]; male, Sprague-Dawley, rat, plasma, po, 10 mg/kg, mean, oral gavage 10 mg/kg, read-out: tmax): 1.7 h; Dose Normalized AUClast ([2]; mean, oral gavage 10 mg/kg): 9.77 kg·ng·h/mL/mg; Dose Normalized AUC∞ ([2]; mean, oral gavage 10 mg/kg): 10.2 kg·ng·h/mL/mg; receptor binding [3]: bind; receptor binding [4]: bind; receptor binding [5]: bind; receptor binding [6]: bind; receptor binding [7]: bind; reduction in ankle swelling ([8]; oral 5 mg/kg): showed a reduction in ankle swelling; reduction in ankle swelling ([8]; oral 25 mg/kg): showed a reduction in ankle swelling
